Activity and EC50 data for 6 molecules are collected here from ChEMBL document CHEMBL1275398, “Side chain cyclization based on serine residues: synthesis, structure, and activity of a novel cyclic analogue of the parathyroid hormone fragment 1-11” (J Med Chem, 2010).

*1 amine or outer side, *2 acyl side, *3 side chain or, on linkers, in order; H or OH if unused. Where a SMILES comes first, the peptide text is derived from it. Bridges are numbered along the chain shown (N, C = ends). [ ]: non-standard residue; d: D form. Adipoyl = O=C(CCCCC(=O)[*:2])[*:1]; hArg = N=C(N)NCCCC[C@H](N)C(=O)O; Nle = CCCC[C@H](N)C(=O)O; Aib = CC(C)(N)C(=O)O

Experiment [1] concerns the target T1, Parathyroid hormone/parathyroid hormone-related peptide receptor (Homo sapiens) (UniProt Q03431).
T1 sequence (whole entry): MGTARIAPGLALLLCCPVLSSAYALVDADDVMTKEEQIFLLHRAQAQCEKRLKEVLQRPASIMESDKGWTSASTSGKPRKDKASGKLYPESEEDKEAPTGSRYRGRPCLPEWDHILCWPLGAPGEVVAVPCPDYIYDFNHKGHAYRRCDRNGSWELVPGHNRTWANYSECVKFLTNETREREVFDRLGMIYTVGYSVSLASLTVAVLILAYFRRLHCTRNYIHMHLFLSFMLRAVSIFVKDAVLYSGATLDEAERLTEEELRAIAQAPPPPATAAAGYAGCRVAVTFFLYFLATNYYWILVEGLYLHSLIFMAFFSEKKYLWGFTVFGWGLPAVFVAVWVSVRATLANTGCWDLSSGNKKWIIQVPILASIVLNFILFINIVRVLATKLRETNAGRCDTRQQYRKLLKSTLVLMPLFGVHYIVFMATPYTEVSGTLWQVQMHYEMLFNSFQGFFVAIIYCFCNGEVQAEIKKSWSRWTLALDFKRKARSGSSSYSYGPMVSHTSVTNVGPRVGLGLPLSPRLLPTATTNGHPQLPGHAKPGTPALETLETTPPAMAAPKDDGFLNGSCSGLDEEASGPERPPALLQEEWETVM
Briefly: Agonist activity at recombinant PTHR1 expressed in HEK293 cells co-transfected with CRE-Luc assessed as maximal increase of adenylyl cyclase activity after 4.5 hrs by luciferase assay relative to control. It counts as functional, cell-based.

Experiment [2] has as its target T2, Parathyroid hormone/parathyroid hormone-related peptide receptor (Homo sapiens, UniProt Q03431).
T2 sequence (Q03431 whole entry): T1 sequence (whole entry)
The experiment is described as follows: Agonist activity at recombinant PTHR1 expressed in HEK293 cells co-transfected with CRE-Luc assessed as increase of adenylyl cyclase activity after 4.5 hrs by luciferase assay. It counts as functional, cell-based.

In the case of `CCCC[C@@H]1NC(=O)[C@H](CC(C)C)NC(=O)[C@@H](NC(=O)[C@@H](NC(=O)[C@H](CCC(=O)O)NC(=O)C(C)(C)NC(=O)[C@@H](NC(=O)C(C)(C)N)C(C)C)[C@@H](C)CC)CCCCNC(=O)CC[C@@H](C(=O)N[C@@H](CCCCNC(=N)N)C(N)=O)NC(=O)[C@H](Cc2cnc[nH]2)NC1=O` (H-[Aib]V[Aib]EIKL[Nle]HE[hArg]-NH2; lactam 6-10), the Activity in experiment [1] was 98%.

As for `CCCC[C@@H]1NC(=O)[C@H](CC(C)C)NC(=O)[C@@H](NC(=O)[C@@H](NC(=O)[C@H](CCC(=O)O)NC(=O)C(C)(C)NC(=O)[C@@H](NC(=O)C(C)(C)N)C(C)C)[C@@H](C)CC)COC(=O)CCCCC(=O)OC[C@@H](C(=O)N[C@@H](CCCCN=C(N)N)C(N)=O)NC(=O)[C@H](Cc2cnc[nH]2)NC1=O` (H-[Aib]V[Aib]EISL[Nle]HS[hArg]-NH2; linker 6-10 via Adipoyl), the 50% effective concentration (EC50) (usually the midpoint of the concentration-response curve) in experiment [2] is 0.2 nM.

Consider `CCCC[C@@H]1NC(=O)[C@H](CC(C)C)NC(=O)[C@@H](NC(=O)[C@@H](NC(=O)[C@H](CCC(=O)O)NC(=O)C(C)(C)NC(=O)[C@@H](NC(=O)C(C)(C)N)C(C)C)[C@@H](C)CC)CCCCNC(=O)CC[C@@H](C(=O)N[C@@H](CCCCN=C(N)N)C(N)=O)NC(=O)[C@H](Cc2cnc[nH]2)NC1=O` (H-[Aib]V[Aib]EIKL[Nle]HE[hArg]-NH2; lactam 6-10), for which, in experiment [2], the 50% effective concentration (EC50) came out at 1120 nM.

For `CCCC[C@@H]1NC(=O)[C@H](CC(C)C)NC(=O)[C@@H](NC(=O)[C@@H](NC(=O)[C@H](CCC(=O)O)NC(=O)C(C)(C)NC(=O)[C@@H](NC(=O)C(C)(C)N)C(C)C)[C@@H](C)CC)COC(=O)CCCCC(=O)OC[C@@H](C(=O)N[C@@H](CCCCNC(=N)N)C(N)=O)NC(=O)[C@H](Cc2cnc[nH]2)NC1=O` (H-[Aib]V[Aib]EISL[Nle]HS[hArg]-NH2; linker 6-10 via Adipoyl), the Activity in experiment [1] worked out at 159%.

Consider `CCCC[C@H](NC(=O)[C@H](CC(C)C)NC(=O)[C@H](CCC(N)=O)NC(=O)[C@@H](NC(=O)[C@H](CCC(=O)O)NC(=O)C(C)(C)NC(=O)[C@@H](NC(=O)C(C)(C)N)C(C)C)[C@@H](C)CC)C(=O)N[C@@H](Cc1cnc[nH]1)C(=O)N[C@@H](CCC(N)=O)C(=O)N[C@@H](CCCCN=C(N)N)C(N)=O` (H-[Aib]V[Aib]EIQL[Nle]HQ[hArg]-NH2), for which the EC50 in experiment [2] was 2.4 nM.

Take `CCCC[C@H](NC(=O)[C@H](CC(C)C)NC(=O)[C@H](CCC(N)=O)NC(=O)[C@@H](NC(=O)[C@H](CCC(=O)O)NC(=O)C(C)(C)NC(=O)[C@@H](NC(=O)C(C)(C)N)C(C)C)[C@@H](C)CC)C(=O)N[C@@H](Cc1cnc[nH]1)C(=O)N[C@@H](CCC(N)=O)C(=O)N[C@@H](CCCCNC(=N)N)C(N)=O` (H-[Aib]V[Aib]EIQL[Nle]HQ[hArg]-NH2): the Activity in experiment [1] is 90%.
